Experiment: aqueous equilibrium solubility
Assay type: physicochemical
Details: aqueous suspension on a rotator for 48 hours at room temperature; filtered 0.45-micrometer PTFE; HPLC
Experimental: The aqueous equilibrium solubility of 3-[4(1,2-diphenyl-but-1-enyl)-phenyl]-acrylic acid, a SERM compound, and its meglumine and lysine salts were determined by placing aqueous suspensions of the corresponding compound on a rotator for 48 hours at room temperature. The samples were filtered using a 0.45-micrometer PTFE filter and analyzed by HPLC. The pH of the filtrate was also determined.
In the case of CCC(=C(c1ccccc1)c1ccc(C=CC(=O)O)cc1)c1ccccc1 [3-[4(1,2-diphenyl-but-1-enyl)-phenyl]-acrylic acid (lysine s], the equilibrium aqueous solubility is reported as 400 µg/mL. In the case of CCC(=C(c1ccccc1)c1ccc(C=CC(=O)O)cc1)c1ccccc1 [3-[4(1,2-diphenyl-but-1-enyl)-phenyl]-acrylic acid (meglumin], the equilibrium aqueous solubility is reported as 700 µg/mL. Compound CCC(=C(c1ccccc1)c1ccc(C=CC(=O)O)cc1)c1ccccc1 [3-[4(1,2-diphenyl-but-1-enyl)-phenyl]-acrylic acid (free aci] has an equilibrium aqueous solubility of 8.6 µg/mL.
